Among the data in US20240083886A1, “HETEROCYCLIC GLP-1 AGONISTS” (Gasherbrum Bio, Inc., priority 2020, published 2024) are EC50 values, retold here.

The EC50 is the concentration giving half of the maximal effect.

Molecules are shown by their SMILES. Where two headings read alike, the source gives them in different places.

This test addresses GLP-1 Receptor (Homo sapiens, UniProt P43220). Briefly: GLP-1R agonist cAMP stimulation assay. It counts as cell-based. On the procedure:
Activation of GLP-1 receptor is known to stimulate cyclic AMP (cAMP) production in cells which indicates primary coupling to the Gαs subunit of the G protein heterotrimeric complex.
To optimize functional activity directed toward Gαs coupling, a HEK293/CRE-Luc cell line developed by HDB stably expressing the GLP-1 Receptor was used. 200× concentration of compound working solutions were prepared (Agilent Technologies Bravo) with ½ log serial dilution in 384-well Echo LDV plate (Labcyte, Cat #LP-0200). 50 nL/well 200× concentration of compound working solutions were moved to 384-well white low volume plate (Greiner, Cat #784075) using Labcyte ECHO550. 1×10^5 cells/mL HEK293/GLP1R/CRE-LUC(HD Biosciences) cell suspensions prepared with assay buffer[DPBS containing 0.5 mM IBMX(Sigma, Cat #15879) and 0.1% BSA (GENVIEW, Cat #FA016-100 g)], 10 uL cell suspensions were added to each well of previous generated assay plate which already contains 50 nl compound at 200×concentration using ThermoFisher Multidrop Combi (1000 cells/well). Seal the plate and incubate at 37° C. with 5% CO2 for 30 min.
After incubation the cAMP assay signal was generated using cAMP dynamic 2 Kit (Cisbio). 5 μL cAMP-d2 working solution was added to each well, followed with 5 μL Anti-cAMP antibody-cryptate working solution added to each well using ThermoFisher Multidrop Combi. Incubate at room temperature for 1 hour protected from light. Read the fluorescence at 665 and 615 nm with Reader PerkinElmer EnVision.
% Activity=100%×(mean RLU of test sample−mean RLU of vehicle control)/(mean RLU of MAX control−mean RLU of vehicle control))

Where [1] appears, read: HEK293/GLP1R/CRE-LUC cells, cAMP dynamic 2 Kit (Cisbio), 30 min incubation at 37° C., read-out: EC50.

Chain of GLP-1 Receptor (P43220 24-463, species assumed): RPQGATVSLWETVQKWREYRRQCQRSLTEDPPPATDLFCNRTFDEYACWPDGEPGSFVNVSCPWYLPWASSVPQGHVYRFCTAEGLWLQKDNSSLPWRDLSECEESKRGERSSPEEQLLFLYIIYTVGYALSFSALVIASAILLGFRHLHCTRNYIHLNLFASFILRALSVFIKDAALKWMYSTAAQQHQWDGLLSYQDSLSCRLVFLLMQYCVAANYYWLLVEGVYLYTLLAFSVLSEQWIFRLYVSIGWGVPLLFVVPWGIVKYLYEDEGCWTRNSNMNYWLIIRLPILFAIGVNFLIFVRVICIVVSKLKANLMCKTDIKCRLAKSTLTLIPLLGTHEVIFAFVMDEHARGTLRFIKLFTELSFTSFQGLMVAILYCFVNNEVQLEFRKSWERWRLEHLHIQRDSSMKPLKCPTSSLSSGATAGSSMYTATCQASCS

Turning to `Fc1cnc(Cc2ccc(Cl)cc2)nc1OC1CCN(Cc2nc3cc(-c4nnc(C(F)(F)F)[nH]4)ncc3n2C[C@@H]2CCO2)CC1` [Compound 149a, 2-[(4-chlorophenyl)methyl]-5-fluoro-4-({1-[(3-{[(2S)-oxetan-2-yl]methyl}-6-[5-(trifluoromethyl)-4H-1,2,4-triazol-3-yl]-3H-imidazo[4,5-c]pyridin-2-yl)methyl]piperidin-4-yl}oxy)pyrimidine], under setting [1], the EC50 worked out at 0.056 nM.
For `FC(F)(F)c1nnc(-c2cc3nc(CN4CCC(Oc5ccnc(Cc6ccc(Cl)cc6)n5)CC4)n(C[C@@H]4CCO4)c3cn2)[nH]1` [Compound 150a, 2-[(4-chlorophenyl)methyl]-4-({1-[(3-{[(2S)-oxetan-2-yl]methyl}-6-[5-(trifluoromethyl)-4H-1,2,4-triazol-3-yl]-3H-imidazo[4,5-c]pyridin-2-yl)methyl]piperidin-4-yl}oxy)pyrimidine], the EC50 stood at 0.036 nM.
For `Clc1ccc(Cc2nccc(OC3CCN(Cc4nc5cc(-c6nnn[nH]6)ccc5n4Cc4cn[nH]c4)CC3)n2)cc1` [Compound 153, 2-{[4-({2-[(4-chlorophenyl)methyl]pyrimidin-4-yl}oxy)piperidin-1-yl]methyl}-1-[(1H-pyrazol-4-yl)methyl]-5-(1H-1,2,3,4-tetrazol-5-yl)-1H-1,3-benzodiazole], the EC50 under setting [1] was found to be 0.18 nM.
Still for that read-out and setting: then `N#CC1(Cn2c(CN3CCC(Oc4ccnc(Cc5ccc(Cl)cc5)n4)CC3)nc3cc(-c4noc(=O)[nH]4)ccc32)CC1` [Compound 155, 1-[(2-{[4-({2-[(4-chlorophenyl)methyl]pyrimidin-4-yl}oxy)piperidin-1-yl]methyl}-5-(5-oxo-4,5-dihydro-1,2,4-oxadiazol-3-yl)-1H-1,3-benzodiazol-1-yl)methyl]cyclopropane-1-carbonitrile], with 0.32 nM; and `N#CC1(Cn2c(CN3CCC(Oc4ccnc(Cc5ccc(Cl)cc5)n4)CC3)nc3cc(-c4nnc(C(F)(F)F)[nH]4)ccc32)CC1` [Compound 157, 1-[(2-{[4-({2-[(4-chlorophenyl)methyl]pyrimidin-4-yl}oxy)piperidin-1-yl]methyl}-5-[5-(trifluoromethyl)-4H-1,2,4-triazol-3-yl]-1H-1,3-benzodiazol-1-yl)methyl]cyclopropane-1-carbonitrile], with 1.1 nM.
Take `CC(=O)Nc1ccc2c(c1)nc(CN1CCC(Oc3cccc(Cc4ccc(Cl)cc4F)n3)CC1)n2C[C@@H]1CCO1` [Compound 160a]: the EC50 under setting [1] came to 12.2 nM.
As to `Cc1nnc(-c2cnc3c(c2)nc(CN2CCC(Oc4nc(Cc5ccc(Cl)cc5)ncc4F)CC2)n3C[C@@H]2CCO2)[nH]1` [Compound 162a, 2-[(4-chlorophenyl)methyl]-5-fluoro-4-[(1-{[6-(5-methyl-4H-1,2,4-triazol-3-yl)-3-{[(2S)-oxetan-2-yl]methyl}-3H-imidazo[4,5-b]pyridin-2-yl]methyl}piperidin-4-yl)oxy]pyrimidine], the response was half-maximal at 2.9 nM (EC50).
On to `Cc1nnc(-c2cc3nc(CN4CCC(Oc5nc(Cc6ccc(Cl)cc6)ncc5F)CC4)n(C[C@@H]4CCO4)c3cn2)[nH]1` [Compound 163a, 2-[(4-chlorophenyl)methyl]-5-fluoro-4-[(1-{[6-(5-methyl-4H-1,2,4-triazol-3-yl)-3-{[(2S)-oxetan-2-yl]methyl}-3H-imidazo[4,5-c]pyridin-2-yl]methyl}piperidin-4-yl)oxy]pyrimidine], for which the EC50 is 0.25 nM.
Take `Fc1cc(Cl)ccc1Cc1ccc(F)c(OC2CCN(Cc3nc4cc(-c5nnc(C(F)(F)F)[nH]5)ncc4n3C[C@@H]3CCO3)CC2)n1` [Compound 164a, 6-[(4-chloro-2-fluorophenyl)methyl]-3-fluoro-2-({1-[(3-{[(2S)-oxetan-2-yl]methyl}-6-[5-(trifluoromethyl)-4H-1,2,4-triazol-3-yl]-3H-imidazo[4,5-c]pyridin-2-yl)methyl]piperidin-4-yl}oxy)pyridine]: the EC50 under setting [1] was 0.35 nM.
For the compound `O=C(O)c1ccc2c(c1)nc(CN1CCC(Oc3nc(Cc4ccc(Cl)cc4F)ncc3F)CC1)n2C[C@@H]1CCO1` [Compound 165a, 2-{[4-({2-[(4-chloro-2-fluorophenyl)methyl]-5-fluoropyrimidin-4-yl}oxy)piperidin-1-yl]methyl}-1-{[(2S)-oxetan-2-yl]methyl}-1H-1,3-benzodiazole-5-carboxylic acid], under setting [1], the EC50 came out at 12 nM.
Compound `Fc1cc(Cl)ccc1Cc1nccc(OC2CCN(Cc3nc4cc(-c5nnc[nH]5)ncc4n3C[C@@H]3CCO3)CC2)n1` [Compound 166a, 2-[(4-chloro-2-fluorophenyl)methyl]-4-({1-[(3-{[(2S)-oxetan-2-yl]methyl}-6-(4H-1,2,4-triazol-3-yl)-3H-imidazo[4,5-c]pyridin-2-yl)methyl]piperidin-4-yl}oxy)pyrimidine] gave a 50% effective concentration (EC50) of 1.8 nM.
On to `O=c1[nH]c(-c2cc3nc(CN4CCC(Oc5ccnc(Cc6ccc(Cl)cc6F)n5)CC4)n(C[C@@H]4CCO4)c3cn2)no1` [Compound 167a, 3-(2-{[4-({2-[(4-chloro-2-fluorophenyl)methyl]pyrimidin-4-yl}oxy)piperidin-1-yl]methyl}-3-{[(2S)-oxetan-2-yl]methyl}-3H-imidazo[4,5-c]pyridin-6-yl)-4,5-dihydro-1,2,4-oxadiazol-5-one], for which, under setting [1], the EC50 is 0.23 nM.
In the case of `Fc1cc(Cl)ccc1Cc1ncc(F)c(OC2CCN(Cc3nc4cc(-c5nnc(C(F)(F)F)[nH]5)ncc4n3C[C@@H]3CCO3)CC2)n1` [Compound 168a, 2-[(4-chloro-2-fluorophenyl)methyl]-5-fluoro-4-({1-[(3-{[(2S)-oxetan-2-yl]methyl}-6-[5-(trifluoromethyl)-4H-1,2,4-triazol-3-yl]-3H-imidazo[4,5-c]pyridin-2-yl)methyl]piperidin-4-yl}oxy)pyrimidine], under setting [1], the concentration for a half-maximal effect (EC50) was 0.081 nM.
Turning to `Fc1cc(Cl)ccc1Cc1ncc(F)c(OC2CCN(Cc3nc4cc(-c5nnc[nH]5)ncc4n3C[C@@H]3CCO3)CC2)n1` [Compound 169a, 2-[(4-chloro-2-fluorophenyl)methyl]-5-fluoro-4-({1-[(3-{[(2S)-oxetan-2-yl]methyl}-6-(4H-1,2,4-triazol-3-yl)-3H-imidazo[4,5-c]pyridin-2-yl)methyl]piperidin-4-yl}oxy)pyrimidine], a half-maximal effect (EC50) was put at 1.5 nM.
Same read-out and setting: next, `Cc1nnc(-c2cc3nc(CN4CCC(Oc5nc(Cc6ccc(Cl)cc6F)ncc5F)CC4)n(C[C@@H]4CCO4)c3cn2)[nH]1` [Compound 170a, 2-[(4-chloro-2-fluorophenyl)methyl]-5-fluoro-4-[(1-{[6-(5-methyl-4H-1,2,4-triazol-3-yl)-3-{[(2S)-oxetan-2-yl]methyl}-3H-imidazo[4,5-c]pyridin-2-yl]methyl}piperidin-4-yl)oxy]pyrimidine]: 0.13 nM.
`O=c1[nH]c(-c2cc3nc(CN4CCC(Oc5nc(Cc6ccc(Cl)cc6F)ncc5F)CC4)n(C[C@@H]4CCO4)c3cn2)no1` [Compound 171a, 3-(2-{[4-({2-[(4-chloro-2-fluorophenyl)methyl]-5-fluoropyrimidin-4-yl}oxy)piperidin-1-yl]methyl}-3-{[(2S)-oxetan-2-yl]methyl}-3H-imidazo[4,5-c]pyridin-6-yl)-4,5-dihydro-1,2,4-oxadiazol-5-one]: the EC50 under setting [1] worked out at 0.17 nM.
Same read-out and setting: then `O=c1[nH]c(-c2ccc3c(c2)nc(C[C@H]2CC[C@H](Oc4nc(Cc5ccc(Cl)cc5)ncc4F)CC2)n3C[C@@H]2CCO2)no1` [Compound 172a, 3-(1-{[(2S)-oxetan-2-yl]methyl}-2-{[(1r,4r)-4-({2-[(4-chlorophenyl)methyl]-5-fluoropyrimidin-4-yl}oxy)cyclohexyl]methyl}-1H-1,3-benzodiazol-5-yl)-4,5-dihydro-1,2,4-oxadiazol-5-one], with 1.8 nM; and `Fc1cnc(Cc2ccc(Cl)cc2)nc1O[C@H]1CC[C@H](Cc2nc3cc(-c4nnc(C(F)(F)F)[nH]4)ccc3n2C[C@@H]2CCO2)CC1` [Compound 173a, 1-{[(2S)-oxetan-2-yl]methyl}-2-{[(1r,4r)-4-({2-[(4-chlorophenyl)methyl]-5-fluoropyrimidin-4-yl}oxy)cyclohexyl]methyl}-5-[5-(trifluoromethyl)-4H-1,2,4-triazol-3-yl]-1H-1,3-benzodiazole], with 0.81 nM.
The same measure, in the same setting: then `Fc1cc(Cl)ccc1COc1cccc(N[C@@H]2CCN(Cc3nc4cc(-c5nnc(C(F)(F)F)[nH]5)ncc4n3C[C@@H]3CCO3)C2)n1` [Compound 174a, 6-[(4-chloro-2-fluorophenyl)methoxy]-N-[(3R)-1-[(3-{[(2S)-oxetan-2-yl]methyl}-6-[5-(trifluoromethyl)-4H-1,2,4-triazol-3-yl]-3H-imidazo[4,5-c]pyridin-2-yl)methyl]pyrrolidin-3-yl]pyridin-2-amine], with 3.4 nM.
Consider `Fc1cc(Cl)ccc1Cc1ncc(F)c(OC2CCN(Cc3nc4cc(-c5nnn[nH]5)ncc4n3C[C@@H]3CCO3)CC2)n1` [Compound 175a, 2-[(4-chloro-2-fluorophenyl)methyl]-5-fluoro-4-({1-[(3-{[(2S)-oxetan-2-yl]methyl}-6-(1H-1,2,3,4-tetrazol-5-yl)-3H-imidazo[4,5-c]pyridin-2-yl)methyl]piperidin-4-yl}oxy)pyrimidine], for which the EC50 under setting [1] came to 0.17 nM.
